Data published in US11292770B2, “Pyridazinone herbicides” (FMC Corporation, priority 2017, dated 2022).

What was measured:
Format in all cases: in vivo
[1] = test system: ducksalad (Heteranthera limosa); assay: Test B flooded paddy test, ducksalad; details: Flood, 250 g ai/ha; scale of 0 to 100
Method: (§1) Plant species in the flooded paddy test selected from rice (Oryza sativa), sedge, umbrella (small-flower umbrella sedge, Cyperus difformis), ducksalad (Heteranthera limosa), and barnyardgrass (Echinochloa crus-galli) were grown to the 2-leaf stage for testing. At the time of treatment, test pots were flooded to 3 cm above the soil surface, treated by application of test compounds directly to the paddy water, and then maintained at that water depth for the duration of the test. Treated plants and controls were maintained in a greenhouse for 13 to 15 d, after which time all species were compared to controls and visually evaluated. Plant response ratings, summarized in Table B, are based on a scale of 0 to 100 where 0 is no effect and 100 is complete control. A dash (—) response means no test result.

kochia (Kochia scoparia) [2] = assay: Test A preemergence, kochia; details: 0 to 100 scale
Excerpt: (§2) Seeds of plant species selected from barnyardgrass (Echinochloa crus-galli), kochia (Kochia scoparia), ragweed (common ragweed, Ambrosia elation), ryegrass, Italian (Italian ryegrass, Lolium multiflorum), foxtail, green (green foxtail, Setaria viridis), and pigweed (Amaranthus retroflexus) were planted into a blend of loam soil and sand and treated preemergence with a directed soil spray using test chemicals formulated in a non-phytotoxic solvent mixture which included a surfactant. At the same time, plants selected from these weed species and also wheat (Triticum aestivum), corn (Zea mays), blackgrass (Alopecurus myosuroides), and galium (catchweed bedstraw, Galium aparine) were planted in pots containing the same blend of loam soil and sand and treated with postemergence applications of test chemicals formulated in the same manner Plants ranged in height from 2 to 10 cm and were in the one- to two-leaf stage for the postemergence treatment. Treated plants and untreated controls were maintained in a greenhouse for approximately 10 d, after which time all treated plants were compared to untreated controls and visually evaluated for injury. Plant response ratings, summarized in Table A, are based on a 0 to 100 scale where 0 is no effect and 100 is complete control. A dash (—) response means no test result.

[3] = test system: sedge, umbrella (small-flower umbrella sedge, Cyperus difformis); assay: Test B flooded paddy test, sedge, umbrella; details: Flood, 250 g ai/ha; scale of 0 to 100
Method: as §1

[4] = test system: foxtail, green (green foxtail, Setaria viridis); assay: Test A preemergence, foxtail, green; details: 0 to 100 scale
Excerpt: as §2

[5] = test system: wheat (Triticum aestivum); assay: Test A postemergence, wheat; details: 0 to 100 scale
Excerpt: as §2

[6] = test system: ragweed (common ragweed, Ambrosia elation); assay: Test A preemergence, ragweed; details: 0 to 100 scale
Excerpt: as §2

[7] = test system: ragweed (common ragweed, Ambrosia elation); assay: Test A postemergence, ragweed; details: 0 to 100 scale
Excerpt: as §2

[8] = test system: pigweed (Amaranthus retroflexus); assay: Test A preemergence, pigweed; details: 0 to 100 scale
Excerpt: as §2

[9] = test system: galium (catchweed bedstraw, Galium aparine); assay: Test A postemergence, galium; details: 0 to 100 scale
Excerpt: as §2

[10] = test system: pigweed (Amaranthus retroflexus); assay: Test A postemergence, pigweed; details: 0 to 100 scale
Excerpt: as §2

[11] = test system: barnyardgrass (Echinochloa crus-galli); assay: Test A postemergence, barnyardgrass; details: 0 to 100 scale
Excerpt: as §2

[12] = test system: ryegrass, Italian (Italian ryegrass, Lolium multiflorum); assay: Test A postemergence, ryegrass, Italian; details: 0 to 100 scale
Excerpt: as §2

[13] = test system: ryegrass, Italian (Italian ryegrass, Lolium multiflorum); assay: Test A preemergence, ryegrass, Italian; details: 0 to 100 scale
Excerpt: as §2

[14] = test system: barnyardgrass (Echinochloa crus-galli); assay: Test A preemergence, barnyardgrass; details: 0 to 100 scale
Excerpt: as §2

[15] = test system: barnyardgrass (Echinochloa crus-galli); assay: Test B flooded paddy test, barnyardgrass; details: Flood, 250 g ai/ha; scale of 0 to 100, 0 no effect, 100 complete control
Method: as §1

rice (Oryza sativa) = assay: Test B flooded paddy test, rice; details: Flood, 250 g ai/ha; scale of 0 to 100
Method: as §1

kochia (Kochia scoparia) [16] = assay: Test A postemergence, kochia; details: 0 to 100 scale
Excerpt: as §2

[17] = test system: foxtail, green (green foxtail, Setaria viridis); assay: Test A postemergence, foxtail, green; details: 0 to 100 scale
Excerpt: as §2

corn (Zea mays) = assay: Test A postemergence, corn; details: 0 to 100 scale
Excerpt: as §2

[18] = test system: blackgrass (Alopecurus myosuroides); assay: Test A postemergence, blackgrass; details: 0 to 100 scale
Excerpt: as §2

Foxtail, Giant [19] = assay: Test A postemergence, foxtail, giant; details: 0 to 100 scale
Foxtail, Giant [20] = assay: Test A preemergence, foxtail, giant; details: 0 to 100 scale
[21] = 125 g ai/ha, 0 no effect, 100 complete control

Structure (SMILES)	Plant response rating, Ducksalad [1]	Plant response rating, Kochia (kochia (Kochia scoparia) [2]; 31 g ai/ha)	Plant response rating, Kochia (kochia (Kochia scoparia) [2]; 125 g ai/ha)	Plant response rating, Sedge, Umbrella [3]	Plant response rating, Wheat ([5]; 31 g ai/ha)	Plant response rating, Wheat ([5]; 125 g ai/ha)	Plant response rating, Ragweed ([6]; 31 g ai/ha)	Plant response rating, Ragweed ([6]; 125 g ai/ha)	Plant response rating, Ragweed ([7]; 31 g ai/ha)	Plant response rating, Ragweed ([7]; 125 g ai/ha)	Plant response rating, Pigweed ([8]; 31 g ai/ha)	Plant response rating, Pigweed ([8]; 125 g ai/ha)	Plant response rating, Galium ([9]; 31 g ai/ha)	Plant response rating, Galium ([9]; 125 g ai/ha)	Plant response rating, Pigweed ([10]; 31 g ai/ha)	Plant response rating, Pigweed ([10]; 125 g ai/ha)	Plant response rating, Barnyardgrass ([11]; 31 g ai/ha)	Plant response rating, Barnyardgrass [11, 21]	Plant response rating, Ryegrass, Italian ([12]; 31 g ai/ha)	Plant response rating, Ryegrass, Italian ([12]; 125 g ai/ha)	other results
Cc1c2ccccc2c(-c2c(O)c(Cl)nn(C)c2=O)c2ccccc12 [Compound 5]	90	0	0	95	0	0	0	0	10	20	0	60	20	70	50	90	0	30	0	50	Plant response rating, Foxtail, Green ([4]; 31 g ai/ha): 0; Plant response rating, Foxtail, Green ([4]; 125 g ai/ha): 0; Plant response rating, Ryegrass, Italian ([13]; 31 g ai/ha): 0; Plant response rating, Ryegrass, Italian ([13]; 125 g ai/ha): 0; Plant response rating, Barnyardgrass ([14]; 31 g ai/ha): 0; Plant response rating, Barnyardgrass ([14]; 125 g ai/ha): 0; Plant response rating, Barnyardgrass [15]: 0; Plant response rating, Rice (rice (Oryza sativa)): 0; Plant response rating, Kochia (kochia (Kochia scoparia) [16]; 31 g ai/ha): 0; Plant response rating, Kochia (kochia (Kochia scoparia) [16]; 125 g ai/ha): 0; Plant response rating, Foxtail, Green ([17]; 31 g ai/ha): 0; Plant response rating, Foxtail, Green ([17]; 125 g ai/ha): 30; Plant response rating, Corn (corn (Zea mays); 31 g ai/ha): 10; Plant response rating, Corn (corn (Zea mays); 125 g ai/ha): 20; Plant response rating, Blackgrass ([18]; 31 g ai/ha): 0; Plant response rating, Blackgrass ([18]; 125 g ai/ha): 0
CC(=O)Oc1c(Cl)nn(C)c(=O)c1-c1c2ccccc2cc2ccccc12 [Compound 6]	85	0	0	95	10	10	40	100	90	90	80	100	80	100	100	100	0	10	20	70	Plant response rating, Foxtail, Giant (Foxtail, Giant [19]; 31 g ai/ha): 0; Plant response rating, Foxtail, Giant (Foxtail, Giant [19]; 125 g ai/ha): 20; Plant response rating, Foxtail, Giant (Foxtail, Giant [20]; 31 g ai/ha): 0; Plant response rating, Foxtail, Giant (Foxtail, Giant [20]; 125 g ai/ha): 10; Plant response rating, Ryegrass, Italian ([13]; 31 g ai/ha): 30; Plant response rating, Ryegrass, Italian ([13]; 125 g ai/ha): 30; Plant response rating, Barnyardgrass ([14]; 31 g ai/ha): 0; Plant response rating, Barnyardgrass ([14]; 125 g ai/ha): 0; Plant response rating, Barnyardgrass [15]: 0; Plant response rating, Rice (rice (Oryza sativa)): 0; Plant response rating, Kochia (kochia (Kochia scoparia) [16]; 31 g ai/ha): 0; Plant response rating, Kochia (kochia (Kochia scoparia) [16]; 125 g ai/ha): 20; Plant response rating, Corn (corn (Zea mays); 31 g ai/ha): 0; Plant response rating, Corn (corn (Zea mays); 125 g ai/ha): 0; Plant response rating, Blackgrass ([18]; 31 g ai/ha): 0; Plant response rating, Blackgrass ([18]; 125 g ai/ha): 0
Cn1nc(Cl)c(O)c(-c2c3ccccc3c(Cl)c3ccccc23)c1=O [Compound 2, 6-chloro-4-(10-chloro-9-anthracenyl)-5-hydroxy-2-methyl-3(2H)-pyridazinone]	80	0	10	75	0	30	80	100	90	90	100	100	20	100	100	100	0	20	50	80	Plant response rating, Foxtail, Green ([4]; 31 g ai/ha): 0; Plant response rating, Foxtail, Green ([4]; 125 g ai/ha): 90; Plant response rating, Ryegrass, Italian ([13]; 31 g ai/ha): 20; Plant response rating, Ryegrass, Italian ([13]; 125 g ai/ha): 70; Plant response rating, Barnyardgrass ([14]; 31 g ai/ha): 0; Plant response rating, Barnyardgrass ([14]; 125 g ai/ha): 0; Plant response rating, Barnyardgrass [15]: 0; Plant response rating, Rice (rice (Oryza sativa)): 0; Plant response rating, Kochia (kochia (Kochia scoparia) [16]; 31 g ai/ha): 10; Plant response rating, Kochia (kochia (Kochia scoparia) [16]; 125 g ai/ha): 70; Plant response rating, Foxtail, Green ([17]; 31 g ai/ha): 10; Plant response rating, Foxtail, Green ([17]; 125 g ai/ha): 60; Plant response rating, Corn (corn (Zea mays); 31 g ai/ha): 0; Plant response rating, Corn (corn (Zea mays); 125 g ai/ha): 0; Plant response rating, Blackgrass ([18]; 31 g ai/ha): 0; Plant response rating, Blackgrass ([18]; 125 g ai/ha): 60
Cc1nn(C)c(=O)c(-c2c3ccccc3cc3ccccc23)c1O [Compound 8]	90	0	0	90	0	0	40	90	90	90	100	100	80	90	90	100	10	50	90	100	Plant response rating, Foxtail, Giant (Foxtail, Giant [19]; 31 g ai/ha): 10; Plant response rating, Foxtail, Giant (Foxtail, Giant [19]; 125 g ai/ha): 60; Plant response rating, Foxtail, Giant (Foxtail, Giant [20]; 31 g ai/ha): 0; Plant response rating, Foxtail, Giant (Foxtail, Giant [20]; 125 g ai/ha): 10; Plant response rating, Ryegrass, Italian ([13]; 31 g ai/ha): 10; Plant response rating, Ryegrass, Italian ([13]; 125 g ai/ha): 50; Plant response rating, Barnyardgrass ([14]; 31 g ai/ha): 0; Plant response rating, Barnyardgrass ([14]; 125 g ai/ha): 10; Plant response rating, Barnyardgrass [15]: 15; Plant response rating, Rice (rice (Oryza sativa)): 15; Plant response rating, Kochia (kochia (Kochia scoparia) [16]; 31 g ai/ha): 0; Plant response rating, Kochia (kochia (Kochia scoparia) [16]; 125 g ai/ha): 10; Plant response rating, Corn (corn (Zea mays); 31 g ai/ha): 10; Plant response rating, Corn (corn (Zea mays); 125 g ai/ha): 10; Plant response rating, Blackgrass ([18]; 31 g ai/ha): 0; Plant response rating, Blackgrass ([18]; 125 g ai/ha): 30
